Assay results as given in patent US20070117743A1, “New antitumoral compounds” (priority 2003, published 2007).
Where a SMILES comes first, the peptide text is derived from it. Bridges are numbered along the chain shown (N, C = ends). [ ]: non-standard residue; d: D form. The star is where a group is joined. d(aIle) = CC[C@H](C)[C@@H](N)C(=O)O; d(aThr) = C[C@@H](O)[C@@H](N)C(=O)O; hCha = N[C@@H](CCC1CCCCC1)C(=O)O; Hexanoyl(5-Me) = CC(C)CCCC(=O)*; Orn = NCCC[C@H](N)C(=O)O; Dhb = C/C=C(\N)C(=O)O

How the values were obtained:
Type in all cases: cell-based, human
HeLa = assay: SRB colorimetric assay of cell growth and viability, HeLa; conditions: 48 hours exposure; for CC50: read-out: LC50 HELA
LNCaP = assay: SRB colorimetric assay of cell growth and viability, LNCaP; conditions: 48 hours exposure; for GI50: read-out: GI50 LN-caP; for CC50: read-out: LC50 LN-caP
SK-BR-3 = assay: SRB colorimetric assay of cell growth and viability, SK-BR-3; conditions: 48 hours exposure
HeLa-APL = assay: SRB colorimetric assay of cell growth and viability, HeLa-APL; conditions: 48 hours exposure; for CC50: read-out: LC50 HELA-APL
SK-MEL-28 = assay: SRB colorimetric assay of cell growth and viability, SK-MEL-28; conditions: 48 hours exposure; for CC50: read-out: LC50 MEL-28
LoVo = assay: SRB colorimetric assay of cell growth and viability, LoVo; conditions: 48 hours exposure; for CC50: read-out: LC50 LOVO
A-549 = assay: SRB colorimetric assay of cell growth and viability, A-549; conditions: 48 hours exposure; for GI50: read-out: GI50 A-549; for CC50: read-out: LC50 A-549
HT-29 = assay: SRB colorimetric assay of cell growth and viability, HT-29; conditions: 48 hours exposure; for GI50: read-out: GI50 HT-29; for CC50: read-out: LC50 HT-29
LoVo-Dox = assay: SRB colorimetric assay of cell growth and viability, LoVo-Dox; conditions: 48 hours exposure; for CC50: read-out: LC50 LOVO-DOX
Procedure, shortened: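 Here, cells grow drug-free for 18 h, then receive sample dilutions from 10 down to 10^−8 μg/mL for 48 h at 37° C. Protein-bound SRB is solubilized in Tris and quantified at 490 nm.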

K-562 = assay: SRB colorimetric assay of cell growth and viability, K-562; conditions: 48 hours exposure; for CC50: read-out: LC50 K-562
PANC-1 = assay: SRB colorimetric assay of cell growth and viability, PANC-1; conditions: 48 hours exposure; for CC50: read-out: LC50 PANC-1
IGROV-1 = assay: SRB colorimetric assay of cell growth and viability, IGROV-1; conditions: 48 hours exposure
IGROV-ET = assay: SRB colorimetric assay of cell growth and viability, IGROV-ET; conditions: 48 hours exposure; for CC50: read-out: LC50 IGROV-ET
DU-145 = assay: SRB colorimetric assay of cell growth and viability, DU-145; conditions: 48 hours exposure

C/C=C1\NC(=O)[C@H](Cc2ccccc2)NC(=O)[C@@H](C(C)C)NC(=O)[C@@H]([C@@H](C)CC)NC(=O)[C@H](NC(=O)[C@H](NC(=O)[C@H](CCCN)NC(=O)[C@H]2CCCN2C(=O)[C@H](NC(=O)[C@H](CCC2CCCCC2)NC(=O)[C@@H](NC(=O)[C@H](NC(=O)CCCC(C)C)C(C)C)[C@@H](C)O)C(C)C)[C@@H](C)CC)[C@@H](C)OC(=O)[C@H](C(C)C)NC1=O [Compound 9, [hCh^11]-KF] ({Hexanoyl(5-Me)}-[dV]T[hCha][dV][dP][Orn][d(aIle)][d(aThr)][d(aIle)][dV]F[Dhb]V; ester 8-C)
GI50 (HeLa): 356 nM
TGI HELA (HeLa): 1.12E−06 Molar
CC50 (HeLa): 2920 nM
TGI LN-caP (LNCaP): 2.33E−06 Molar
GI50 (LNCaP): 925 nM
CC50 (LNCaP): 5850 nM
GI50 (SK-BR-3): 149 nM
LC50 (SK-BR-3): 1360 nM
TGI SK-BR-3 (SK-BR-3): 3.66E−07 Molar
GI50 (HeLa-APL): 391 nM
TGI HELA-APL (HeLa-APL): 1.20E−06 Molar
CC50 (HeLa-APL): 2750 nM
GI50 (SK-MEL-28): 321 nM
TGI MEL-28 (SK-MEL-28): 9.44E−07 Molar
CC50 (SK-MEL-28): 2620 nM
GI50 (LoVo): 95.7 nM
TGI LOVO (LoVo): 1.93E−07 Molar
CC50 (LoVo): 390 nM
TGI A-549 (A-549): 4.48E−07 Molar
GI50 (A-549): 184 nM
CC50 (A-549): 1640 nM
TGI HT-29 (HT-29): 1.92E−07 Molar
GI50 (HT-29): 86 nM
CC50 (HT-29): 429 nM
GI50 (LoVo-Dox): 50.7 nM
TGI LOVO-DOX (LoVo-Dox): 1.30E−07 Molar
CC50 (LoVo-Dox): 305 nM
GI50 (K-562): 1720 nM
TGI K-562 (K-562): 3.39E−06 Molar
CC50 (K-562): 6470 nM
GI50 (PANC-1): 2250 nM
TGI PANC-1 (PANC-1): 5.27E−06 Molar
CC50 (PANC-1): 6470 nM
GI50 (IGROV-1): 237 nM
LC50 (concentration causing 50% net cell killing) (IGROV-1): 3310 nM
TGI IGROV (IGROV-1): 7.76E−07 Molar
GI50 (IGROV-ET): 278 nM
TGI IGROV-ET (IGROV-ET): 8.09E−07 Molar
CC50 (IGROV-ET): 2940 nM
GI50 (DU-145): 455 nM
LC50 (concentration causing 50% net cell kill) (DU-145): 3280 nM
TGI DU-145 (DU-145): 1.24E−06 Molar

C/C=C1\NC(=O)[C@H](Cc2ccccc2)NC(=O)[C@@H](C(C)C)NC(=O)[C@@H]([C@@H](C)CC)NC(=O)[C@H](NC(=O)[C@H](NC(=O)[C@H](CCCN)NC(=O)[C@H]2CCCN2C(=O)[C@H](NC(=O)[C@@H](NC(=O)[C@H](NC(=O)[C@H](NC(=O)CCCC(C)C)C(C)C)[C@H](C)O)C(C)C)C(C)C)[C@@H](C)CC)[C@@H](C)OC(=O)[C@H](C(C)C)NC1=O [Compound 7, [D-Thr^12]-KF]
GI50 (HeLa): ≥ 6770 nM
TGI HELA (HeLa): 6.77E−06 Molar
CC50 (HeLa): ≥ 6770 nM
TGI LN-caP (LNCaP): 6.77E−06 Molar
GI50 (LNCaP): 6040 nM
CC50 (LNCaP): ≥ 6770 nM
GI50 (SK-BR-3): ≥ 6770 nM
LC50 (SK-BR-3): ≥ 6770 nM
TGI SK-BR-3 (SK-BR-3): 6.77E−06 Molar
GI50 (HeLa-APL): ≥ 6770 nM
TGI HELA-APL (HeLa-APL): 6.77E−06 Molar
CC50 (HeLa-APL): ≥ 6770 nM
GI50 (SK-MEL-28): ≥ 6770 nM
TGI MEL-28 (SK-MEL-28): 6.77E−06 Molar
CC50 (SK-MEL-28): ≥ 6770 nM
GI50 (LoVo): ≥ 6770 nM
TGI LOVO (LoVo): 6.77E−06 Molar
CC50 (LoVo): ≥ 6770 nM
TGI A-549 (A-549): 6.77E−06 Molar
GI50 (A-549): ≥ 6770 nM
CC50 (A-549): ≥ 6770 nM
TGI HT-29 (HT-29): 6.77E−06 Molar
GI50 (HT-29): ≥ 6770 nM
CC50 (HT-29): ≥ 6770 nM
GI50 (LoVo-Dox): 5140 nM
TGI LOVO-DOX (LoVo-Dox): 6.77E−06 Molar
CC50 (LoVo-Dox): ≥ 6770 nM
GI50 (K-562): ≥ 6770 nM
TGI K-562 (K-562): 6.77E−06 Molar
CC50 (K-562): ≥ 6770 nM
GI50 (PANC-1): ≥ 6770 nM
TGI PANC-1 (PANC-1): 6.77E−06 Molar
CC50 (PANC-1): ≥ 6770 nM
GI50 (IGROV-1): ≥ 6770 nM
LC50 (concentration causing 50% net cell killing) (IGROV-1): ≥ 6770 nM
TGI IGROV (IGROV-1): 6.77E−06 Molar
GI50 (IGROV-ET): ≥ 6770 nM
TGI IGROV-ET (IGROV-ET): 6.77E−06 Molar
CC50 (IGROV-ET): ≥ 6770 nM
GI50 (DU-145): ≥ 6770 nM
LC50 (concentration causing 50% net cell kill) (DU-145): ≥ 6770 nM
TGI DU-145 (DU-145): 6.77E−06 Molar
